Source: patent US7084176B2, “N-arylphenylacetamide derivatives and medicinal compositions containing the same” (Dainippon Pharmaceutical Co., Ltd., priority 2001, dated 2006)
Where a name gives a salt, the structure may show the parent alone. Read-outs that look alike come from different tables or passages of the source.

Test system: male Std:ddY mice
Test: Phenyl-1,4-benzoquinone-induced writhing test
Format: in vivo
Details: for inhibition in vivo at 1 mg/kg / ED50 / inhibition in vivo at 10 mg/kg: Mus musculus; for inhibition in vivo at 1 mg/kg / inhibition in vivo at 10 mg/kg: 1 h, 60 minutes before PBQ, read-out: Inhibitory percentage (%); for inhibition in vivo at 1 mg/kg: subcutaneously administered at a dose of 1 mg/kg; for ED50 / ED50 (mg/kg sc) / ED50 (mg/kg po): writhing inhibition, logit analysis; for inhibition in vivo at 10 mg/kg: orally administered at a dose of 10 mg/kg
Method: Phenyl-1,4-benzoquinone-induced Writhing Test Referring to the method disclosed in Proc. Soc. exp. Biol. […] For oral administration, a test compound was suspended in 0.5% tragacanth solution. […] In the control group, a physiological saline solution containing 10% Tween 80 and 10% ethanol was administered in the case of subcutaneous administration, or a 0.5% tragacanth solution was administered in the case of oral administration. The number of writhing movements in the test compound-treated group was compared with that in the control group, and the writhing inhibitory percentage was calculated therefrom and considered as an analgesic effect. Writhing inhibitory percentage (%)=[(A−B)/A]×100 In the above equation, A means the number of writhing movements in the control group, and B means the number of writhing movements in the test compound-treated group. From the writhing inhibitory percentage of the test compound, ED50 (mg/kg) was calculated by logit analysis.

[1] = sc, subcutaneous administration, read-out: ED50 (mg/kg sc)
[2] = po, oral administration, read-out: ED50 (mg/kg po)

| SMILES | inhibition in vivo at 1 mg/kg (sc) | ED50 [1] | also measured |
| --- | --- | --- | --- |
| CS(=O)(=O)Nc1cc(CC(=O)Nc2cccc(C3CCCCC3)c2)ccc1O [Ex. 34, N-(3-cyclohexylphenyl)-4-hydroxy-3-(methanesulfonylamino)phenylacetamide] | 41.5% | 0.48 mg/kg | – |
| COc1cc(CC(=O)Nc2cccc(C#Cc3ccccc3C(F)(F)F)c2)ccc1O [Ex. 37, 4-hydroxy-3-methoxy-N-[3-[2-(2-trifluoromethylphenyl)-ethynyl]phenyl]phenylacetamide] | 59.6% | 0.46 mg/kg | – |
| COc1cc(CC(=O)Nc2cccc(C3CCCCCC3)c2)ccc1OCCN [Ex. 58, 4-(2-aminoethoxy)-N-(3-cycloheptylphenyl)-3-methoxyphenylacetamide hydrochloride] | 54.4% | – | – |
| COc1cc(CC(=O)Nc2ccccc2Cc2ccccc2)ccc1O [Ex. 97, N-(2-benzylphenyl)-4-hydroxy-3-methoxyphenylacetamide] | 54.9% | – | – |
| COc1cc(CC(=O)Nc2ccc3c(c2)C(=O)/C(=C/C(C)C)CC3)ccc1O [Ex. 250] | 55% | – | – |
| COc1cc(CC(=O)Nc2ccc3c(c2)C(=O)C(CC(C)C)CC3)ccc1O (centres unmarked) [Ex. 251, 4-hydroxy-3-methoxy-N-[1-oxo-2-(2-methylpropyl)-1,2,3,4-tetrahydronaphthalen-7-yl]phenylacetamide] | 42.7% | – | – |
| COc1cc(CC(=O)Nc2cccc(C3CCCCC3)c2)ccc1O [Example 1, N-(3-cyclohexylphenyl)-4-hydroxy-3-methoxyphenylacetamide] | 100% | – | ED50 (mg/kg sc) (subcutaneous administration, listed as Ex. 1): 0.014 mg/kg |
| COc1cc(CC(=O)Nc2cccc(C3C4CC5CC(C4)CC3C5)c2)ccc1O (centres unmarked) [Example 3, N-[3-(adamantan-2-yl)phenyl]-4-hydroxy-3-methoxyphenylacetamide] | 91.3% | 0.46 mg/kg | – |
| COc1cc(CC(=O)Nc2cccc(C3CCCC3)c2)ccc1O [Example 4, N-(3-cyclopentylphenyl)-4-hydroxy-3-methoxyphenylacetamide] | 79.6% | – | – |
| COc1cc(CC(=O)Nc2cccc(CC3CCCCC3)c2)ccc1O [Example 5, N-[3-(cyclohexylmethyl)phenyl]-4-hydroxy-3-methoxyphenylacetamide] | 83.5% | 0.57 mg/kg | – |
| COc1cc(CC(=O)Nc2cccc(C3=CCCCC3)c2)ccc1O [Example 9, N-[3-(cyclohexen-1-yl)phenyl]-4-hydroxy-3-methoxyphenylacetamide] | 93.2% | 0.23 mg/kg | – |
| COc1cc(CC(=O)Nc2cccc(C3CCCCC3c3ccccc3)c2)ccc1O (centres unmarked) [Example 11, 4-hydroxy-3-methoxy-N-[3-(2-phenylcyclohexan-1-yl)phenyl]-phenylacetamide] | 88.4% | 0.19 mg/kg | – |
| COc1cc(CC(=O)Nc2cccc(C3CCC(C)CC3)c2)ccc1O (centres unmarked) [Example 13, 4-hydroxy-3-methoxy-N-[3-(4-methylcyclohexan-1-yl)phenyl]-phenylacetamide] | 100% | ≤ 0.1 mg/kg | ED50 (mg/kg sc) (subcutaneous administration, listed as Ex. 13): 0.097 mg/kg |
| COc1cc(CC(=O)Nc2cccc(-c3ccccc3)c2)ccc1O [Example 35, 4-hydroxy-3-methoxy-N-(3-phenylphenyl)phenylacetamide] | 89.4% | 0.23 mg/kg | – |
| COc1cc(CC(=O)Nc2cccc(C#Cc3ccccc3)c2)ccc1O [Example 36, 4-hydroxy-3-methoxy-N-[3-(2-phenylethynyl)phenyl]phenylacetamide] | 92.3% | – | ED50 (mg/kg sc) (subcutaneous administration, listed as Ex. 36): 0.046 mg/kg |
| COc1cc(CC(=O)Nc2cccc(CCc3ccccc3)c2)ccc1O [Example 54, 4-hydroxy-3-methoxy-N-[3-(2-phenylethyl)phenyl]phenylacetamide] | 90.4% | ≤ 0.1 mg/kg | ED50 (mg/kg sc) (subcutaneous administration, listed as Ex. 54): 0.081 mg/kg |
| COc1cc(CC(=O)Nc2cccc(/C=C\c3ccccc3)c2)ccc1O [Example 56, 4-hydroxy-3-methoxy-N-[3-[(Z)-2-phenylvinyl]phenyl]phenylacetamide] | 82.7% | 0.11 mg/kg | – |

| SMILES | inhibition in vivo at 1 mg/kg (sc) | ED50 [1] | also measured |
| --- | --- | --- | --- |
| COc1cc(CC(=O)Nc2cccc(-c3ccccc3)c2)ccc1OCCN.Cl [Example 63, 4-(2-aminoethoxy)-3-methoxy-N-(3-phenylphenyl)phenylacetamide] | 100% | – | inhibition in vivo at 10 mg/kg (po): 100%; ED50 (mg/kg po) (oral administration, listed as Ex. 63): 0.021 mg/kg; ED50 (mg/kg sc) (subcutaneous administration, listed as Ex. 63): 0.016 mg/kg |
| COc1cc(CC(=O)Nc2cccc(C3CCC(C(C)(C)C)CC3)c2)ccc1OC(C)=O (centres unmarked) [Example 69, 4-acetoxy-N-[3-(4-tert-butylcyclohexan-1-yl)phenyl]-3-methoxyphenylacetamide] | 99% | ≤ 0.1 mg/kg | inhibition in vivo at 10 mg/kg (po): 73.5%; ED50 [2]: 2.81 mg/kg; ED50 (mg/kg sc) (subcutaneous administration, listed as Ex. 69): 0.088 mg/kg |
| COc1cc(CC(=O)Nc2cccc(C3CCC(C(C)(C)C)CC3)c2)ccc1OC(=O)c1ccccc1 (centres unmarked) [Example 70, 4-benzoyloxy-N-[3-(4-tert-butylcyclohexan-1-yl)phenyl]-3-methoxyphenylacetamide] | 93.2% | 0.16 mg/kg | inhibition in vivo at 10 mg/kg (po): 68.6%; ED50 [2]: 9.7 mg/kg |
| COc1cc(CC(=O)Nc2cccc(C3CCC(C(C)(C)C)CC3)c2)ccc1OC(=O)C(C)(C)C (centres unmarked) [Example 71, 4-tert-butylcarbonyloxy-N-[3-(4-tert-butylcyclohexan-1-yl)-phenyl]-3-methoxyphenylacetamide] | 94.2% | 0.16 mg/kg | – |
| COc1cc(CC(=O)Nc2cccc(C3=CCC(C(C)(C)C)CC3)c2)ccc1O (centres unmarked) [Example 80, N-[3-(4-tert-butylcyclohexen-1-yl)phenyl]-4-hydroxy-3-methoxyphenylacetamide] | 100% | 0.37 mg/kg | – |
| COc1cc(CC(=O)Nc2cccc(C3CCC(C(F)(F)F)CC3)c2)ccc1O (centres unmarked) [Example 81, 4-hydroxy-3-methoxy-N-[3-(4-trifluoromethylcyclohexan-1-yl)-phenyl]phenylacetamide] | 100% | – | – |
| COc1cc(CC(=O)Nc2cccc(C3CCCC(C)C3)c2)ccc1O (centres unmarked) [Example 83, 4-hydroxy-3-methoxy-N-[3-(3-methylcyclohexan-1-yl)phenyl]-phenylacetamide] | 83% | ≤ 0.1 mg/kg | ED50 (mg/kg sc) (subcutaneous administration, listed as Ex. 83): 0.10 mg/kg |
| COc1cc(CC(=O)Nc2cccc(C3C(C)CCCC3C)c2)ccc1O (centres unmarked) [Example 84, N-[3-(2,6-dimethylcyclohexan-1-yl)phenyl]-4-hydroxy-3-methoxyphenylacetamide] | 67.7% | 0.45 mg/kg | – |
| COc1cc(CC(=O)Nc2cccc(C3CC(C)CC(C)C3)c2)ccc1O (centres unmarked) [Example 85, N-[3-(3,5-dimethylcyclohexan-1-yl)phenyl]-4-hydroxy-3-methoxyphenylacetamide] | 76.9% | 0.31 mg/kg | – |
| COc1cc(CC(=O)Nc2cccc(N3CCC(C(C)(C)C)CC3)c2)ccc1O [Example 86, N-[3-(4-tert-butylpiperidin-1-yl)phenyl]-4-hydroxy-3-methoxyphenylacetamide] | 78.8% | 0.33 mg/kg | – |
| COc1cc(CC(=O)Nc2cccc(N3CCCC(C4CCCCC4)C3)c2)ccc1O (centres unmarked) [Example 87, N-[3-(3-cyclohexylpiperidin-1-yl)phenyl]-4-hydroxy-3-methoxyphenylacetamide] | 95.8% | 0.4 mg/kg | – |
| COc1cc(CC(=O)Nc2cccc(N3CCCC(C)C3)c2)ccc1O (centres unmarked) [Example 88, N-[3-(3-methylpiperidin-1-yl)phenyl]-4-hydroxy-3-methoxyphenylacetamide] | 76.6% | – | – |
| COc1cc(CC(=O)Nc2cccc(-c3ccc(Cl)s3)c2)ccc1O [Example 100, 4-hydroxy-3-methoxy-N-[3-(2-chlorothiophen-5-yl)phenyl]-phenylacetamide] | 100% | – | – |
| COc1cc(CC(=O)Nc2cccc(-c3cccn3C(=O)OC(C)(C)C)c2)ccc1O [Example 101, 4-hydroxy-3-methoxy-N-[3-(1-tert-butoxycarbonylpyrrol-2-yl)-phenyl]phenylacetamide] | 100% | 0.23 mg/kg | – |
| COc1cc(CC(=O)Nc2cccc(CCC3CCCCC3)c2)ccc1O [Example 114, 4-hydroxy-3-methoxy-N-[3-(2-cyclohexylethyl)phenyl]phenylacetamide] | 98% | – | – |
| COc1cc(CC(=O)Nc2cccc(-c3ccccc3C3CCCCC3)c2)ccc1OCCN [Example 122, 4-(2-aminoethoxy)-N-[3-(2-cyclohexylphenyl)phenyl]-3-methoxyphenylacetamide] | – | – | inhibition in vivo at 10 mg/kg (po): 99%; ED50 [2]: ≤ 1 mg/kg; ED50 (mg/kg po) (oral administration, listed as Ex. 122): 0.58 mg/kg |
| COc1cc(CC(=O)Nc2cccc(-c3ccccc3F)c2)ccc1OCCN [Example 123, 4-(2-aminoethoxy)-N-[3-(2-fluorophenyl)phenyl]-3-methoxyphenylacetamide] | – | – | inhibition in vivo at 10 mg/kg (po): 100%; ED50 [2]: ≤ 1 mg/kg; ED50 (mg/kg po) (oral administration, listed as Ex. 123): 0.76 mg/kg |
